# Test results: patent US4962112A, “7-(2-methyl-4-aminopyrrolidinyl)naphthryidine and quinoline compounds” (Abbott Laboratories, priority 1988, dated 1990)
# Like-named read-outs stand apart in the source and are kept apart here.
# How the values were obtained:
# [1] = Aqueous solubility in Ringer's buffer at pH 7.5 (HPLC); assay type: physicochemical
# Method: A known excess weight of the compound was shaken overnight with a known volume of Ringer's buffer (bicarbonate buffer containing sodium, potassium, calcium and magnesium ions, initially adjusted to pH 7.5). The contents were filtered, and the clear filtrate was analyzed after appropriate dilution using HPLC (UV absorbance detection).
# E. faecalis = experiment: In vitro antibacterial activity, agar dilution MIC; assay type: cell-based; conditions: Enterococcus faecalis, 18 h
# S. agalactiae = experiment: In vitro antibacterial activity, agar dilution MIC; assay type: cell-based; conditions: Streptococcus agalactiae, 18 h; S. agalactiae CMX 508 (Table 1)
# S. pyogenes = experiment: In vitro antibacterial activity, agar dilution MIC; assay type: cell-based; conditions: Streptococcus pyogenes, 18 h, S. pyogenes M79061-98
# K. pneumoniae = experiment: In vitro antibacterial activity, agar dilution MIC; assay type: cell-based, Klebsiella pneumoniae
# P. mirabilis = experiment: In vitro antibacterial activity, agar dilution MIC; assay type: cell-based; conditions: Proteus mirabilis, 18 h
# P. aeruginosa = experiment: In vitro antibacterial activity, agar dilution MIC; assay type: cell-based; conditions: Pseudomonas aeruginosa, 18 h
# E. coli = experiment: In vitro antibacterial activity, agar dilution MIC; assay type: cell-based; conditions: Escherichia coli
# Method: (§1) The in vitro antibacterial activity of the test compound was determined by conventional agar dilution procedures. The organisms were grown overnight in brain-heart infusion (BHI) broth (Difco 0037-01-6) at 36° C. Twofold dilutions of the stock solution ([…]) of the test compound were made in BHI agar obtain a test concentration ranging from […]. The plate was inoculated with approximately 10^4 organisms. It was then incubated at 36° C. for 18 h. the minimal inhibitory concentration was the lowest concentration of the test compound that yielded no visible growth on the plate.
# H. influenza = experiment: In vitro antibacterial activity, agar dilution MIC; assay type: cell-based; conditions: 18 h
# Method: as §1
# L. bozemanni = experiment: In vitro antibacterial activity, agar dilution MIC; assay type: cell-based; conditions: 18 h; L. bozemanni ATCC 33217
# Method: as §1
# S. aureus = experiment: In vitro antibacterial activity, agar dilution MIC; assay type: cell-based; conditions: Staphylococcus aureus
# Method: as §1
# N. gonorrhoeae = experiment: In vitro antibacterial activity, agar dilution MIC; assay type: cell-based; conditions: Neisseria gonorrhoeae, 18 h
# L. pneumophila = experiment: microbe, parasite or virus in culture; assay type: cell-based; conditions: Legionella pneumophila
# B. fragilis = experiment: In vitro antibacterial activity, agar dilution MIC; assay type: cell-based; conditions: Bacteroides fragilis
# C. difficile = experiment: In vitro antibacterial activity, agar dilution MIC; assay type: cell-based; conditions: Clostridioides difficile
# [2] = Oral pharmacokinetics, blood level by disk agar diffusion bioassay; assay type: in vivo, Mice; conditions: for serum concentrations / blood levels (in words): versus analogs A and B at 100 mg/kg; for Blood Level of Compound: oral 100 mg/kg
# Method: Mice were administered the quantity of compound indicated orally, as a single dose. At the specified time intervals, blood was collected from groups of five mice. All samples were assayed by a disk agar diffusion bioassay procedure. Bacillus subtilis 6633 or Klebsiella pneumoniae 10032 were used as the assay organisms, and seek agar medium No. 1 (BBL Microbiology Systems; Cockeysville, MD) was the growth medium. The plates were incubated at 32° C for 18 h and read with an image analyzer (Optomax Inc.).
# [3] = Klebsiella pneumoniae, 18 h, K. pneumoniae CMX 724A, read-out: MIC
# [4] = ATCC25922, 18 h, E. coli ATCC 25922
# [5] = H. influenza 588A, read-out: MIC
# [6] = ATCC25923, 18 h, S. aureus ATCC 25923
# [7] = ATCC9689, 18 h, C. difficile ATCC 9689
# [8] = ATCC17857, 18 h, C. difficile ATCC 17857
# [9] = compared with 2-unsubstituted aminopyrrolidine analogs
compound,measurement,setting,value
CC1CC(N)CN1c1nc2c(cc1F)c(=O)c(C(=O)O)cn2-c1ccc(F)cc1F (stereo not drawn) [Epimer of Example 2],solubility,[1]; at pH 7.5 in Ringer's buffer,340 µg/mL
CC1CC(N)CN1c1cc2c(cc1F)c(=O)c(C(=O)O)cn2-c1ccc(F)cc1F (stereo not drawn) [Epimer of Example 6],solubility,[1]; at pH 7.5 in Ringer's buffer,182 µg/mL
"C[C@H]1C[C@H](N)CN1c1nc2c(cc1F)c(=O)c(C(=O)O)cn2-c1ccc(F)cc1F [Example 2, (2'S,4'S)-7-(4'-Amino-2'-methylpyrrolidin-1'-yl)-1-(o,p-difluorophenyl)-1,4-dihydro-6-fluoro-4-oxo-1,8-naphthyridine-3-Carboxylic Acid]",MIC,E. faecalis; E. faecalis CMX 729G,0.25 µg/mL
same,MIC,E. faecalis; E. faecalis GYR 1166,0.5 µg/mL
same,MIC,S. agalactiae,0.12 µg/mL
same,MIC,S. pyogenes,0.25 µg/mL
same,MIC,K. pneumoniae; K. pneumoniae CMX 735A,0.06 MCG/ML
same,MIC,K. pneumoniae; [3],0.06 µg/mL
same,MIC,P. mirabilis; P. mirabilis CMX 704F,0.25 µg/mL
same,MIC,P. mirabilis; P. mirabilis CMX 729B,0.25 µg/mL
same,MIC,P. aeruginosa; P. aeruginosa A 5005,0.5 µg/mL
same,MIC,P. aeruginosa; P. aeruginosa CFS 350F,0.5 µg/mL
same,MIC,P. aeruginosa; P. aeruginosa CFS 387C,0.5 µg/mL
same,MIC,P. aeruginosa; P. aeruginosa CMX 719A,2 µg/mL
same,MIC,"E. coli; 18 h, E. coli CMX 733",0.03 µg/mL
same,MIC,"E. coli; 18 h, E. coli CMX 744A",0.03 µg/mL
same,MIC,"E. coli; 18 h, E. coli CMX 756",0.03 µg/mL
same,MIC,E. coli; [4],0.03 µg/mL
same,MIC,H. influenza; H. influenza 504,0.008 µg/mL
same,MIC,H. influenza; H. influenza 519A,0.008 µg/mL
same,MIC,H. influenza; H. influenza 566A,0.008 µg/mL
same,MIC,H. influenza; [5],0.008 µg/mL
same,MIC,L. bozemanni,0.25 µg/mL
same,MIC,"S. aureus; 18 h, S. aureus CMX 705",0.03 µg/mL
same,MIC,"S. aureus; 18 h, S. aureus CMX 730A",0.03 µg/mL
same,MIC,"S. aureus; 18 h, S. aureus GYR 1162",0.03 µg/mL
same,MIC,S. aureus; [6],0.06 µg/mL
same,MIC,N. gonorrhoeae; N. gonorrhoeae 35F AMPI,0.004 µg/mL
same,MIC,N. gonorrhoeae; N. gonorrhoeae CMX 591,0.06 µg/mL
same,MIC,L. pneumophila; 18 h,0.25 µg/mL
same,MIC,"L. pneumophila; ATCC33152, 18 h",0.25 µg/mL
same,MIC,"B. fragilis; 18 h, B. fragilis AT25285",0.5 µg/mL
same,MIC,"B. fragilis; UC2, 18 h, B. fragilis UC-2",0.5 µg/mL
same,MIC,C. difficile; [7],1 µg/mL
same,MIC,C. difficile; [8],1 µg/mL
same,AQUEOUS SOLUBILITY,[1]; at pH 7.5 in Ringer's buffer,0.15 mg/mL
same,solubility properties (in words),[1]; [9],significantly improved aqueous solubility properties
same,oral absorption properties (in words),[2]; [9],greatly improved oral absorption properties
same,concentration at 0.5 h,"[2]; mouse, blood, mice, oral 25 mg/kg, t = 0.5 h, read-out: Blood Level of Compound",5900 ng/mL
same,concentration at 1 h,"[2]; mouse, blood, mice, oral 25 mg/kg, t = 1.0 h, read-out: Blood Level of Compound",3200 ng/mL
same,concentration at 2 h,"[2]; mouse, blood, mice, oral 25 mg/kg, t = 2.0 h, read-out: Blood Level of Compound",3300 ng/mL
same,concentration at 3 h,"[2]; mouse, blood, mice, oral 25 mg/kg, t = 3.0 h, read-out: Blood Level of Compound",2800 ng/mL
same,concentration at 6 h,"[2]; mouse, blood, mice, oral 25 mg/kg, t = 6.0 h, read-out: Blood Level of Compound",1300 ng/mL
same,concentration at 24 h,"[2]; mouse, blood, mice, oral 25 mg/kg, t = 24.0 h, read-out: Blood Level of Compound",200 ng/mL
same,serum concentrations / blood levels (in words),[2]; oral 25 mg/kg,still achieve better blood
same,serum concentrations / blood levels (in words),"[2]; oral 25 mg/kg, listed as Compound 2",higher serum concentrations
"NC1CCN(c2nc3c(cc2F)c(=O)c(C(=O)O)cn3-c2ccc(F)cc2F)C1 (stereo not drawn) [Example A, 7-(3-Amino-pyrrolidin-1-yl)-1-(2,4-difluorophenyl)-1,4-dihydro-6-fluoro--oxo-1,8-naphthyridine-3-carboxylic acid, reference compound]",MIC,E. faecalis; E. faecalis CMX 729G,0.25 µg/mL
same,MIC,E. faecalis; E. faecalis GYR 1166,0.5 µg/mL
same,MIC,S. agalactiae,0.12 µg/mL
same,MIC,S. pyogenes,0.25 µg/mL
same,MIC,K. pneumoniae; K. pneumoniae CMX 735A,0.06 MCG/ML
same,MIC,K. pneumoniae; [3],0.06 µg/mL
same,MIC,P. mirabilis; P. mirabilis CMX 704F,0.25 µg/mL
same,MIC,P. mirabilis; P. mirabilis CMX 729B,0.12 µg/mL
same,MIC,P. aeruginosa; P. aeruginosa A 5005,0.5 µg/mL
same,MIC,P. aeruginosa; P. aeruginosa CFS 350F,0.5 µg/mL
same,MIC,P. aeruginosa; P. aeruginosa CFS 387C,1 µg/mL
same,MIC,P. aeruginosa; P. aeruginosa CMX 719A,2 µg/mL
same,MIC,"E. coli; 18 h, E. coli CMX 733",0.03 µg/mL
same,MIC,"E. coli; 18 h, E. coli CMX 744A",0.03 µg/mL
same,MIC,"E. coli; 18 h, E. coli CMX 756",0.03 µg/mL
same,MIC,E. coli; [4],0.03 µg/mL
same,MIC,H. influenza; H. influenza 504,0.15 µg/mL
same,MIC,H. influenza; H. influenza 519A,0.15 µg/mL
same,MIC,H. influenza; H. influenza 566A,0.15 µg/mL
same,MIC,H. influenza; [5],0.008 µg/mL
same,MIC,L. bozemanni,0.5 µg/mL
same,MIC,"S. aureus; 18 h, S. aureus CMX 705",0.03 µg/mL
same,MIC,"S. aureus; 18 h, S. aureus CMX 730A",0.03 µg/mL
same,MIC,"S. aureus; 18 h, S. aureus GYR 1162",0.03 µg/mL
same,MIC,S. aureus; [6],0.03 µg/mL
same,MIC,N. gonorrhoeae; N. gonorrhoeae 35F AMPI,0.004 µg/mL
same,MIC,N. gonorrhoeae; N. gonorrhoeae CMX 591,0.06 µg/mL
same,MIC,L. pneumophila; 18 h,0.25 µg/mL
same,MIC,"L. pneumophila; ATCC33152, 18 h",0.25 µg/mL
same,MIC,"B. fragilis; 18 h, B. fragilis AT25285",0.4 µg/mL
same,MIC,"B. fragilis; UC2, 18 h, B. fragilis UC-2",0.8 µg/mL
same,MIC,C. difficile; [7],1.6 µg/mL
same,MIC,C. difficile; [8],0.8 µg/mL
same,solubility,[1]; at pH 7.5 in Ringer's buffer,8 µg/mL
same,Blood Level of Compound,"[2]; mice, t = 1.0 h",2300 ng/mL
same,Blood Level of Compound,"[2]; mice, t = 2.0 h",1700 ng/mL
same,Blood Level of Compound,"[2]; mice, t = 3.0 h",1700 ng/mL
same,Blood Level of Compound,"[2]; mice, t = 6.0 h",900 ng/mL
